Source: patent US10035806B2, “Derivatized corroles and metallocorroles and their use as imaging and therapeutic agents” (CALIFORNIA INSTITUTE OF TECHNOLOGY, priority 2015, dated 2018)

Legend:
[1] = solubility in water; assay type: physicochemical
[2] = system: OVCAR-5; assay: NCI60 anticancer drug screen; assay type: cell-based, human; settings: OVCAR-5 (Ovarian Cancer), 10 μM, 48 h
Text: (§1) The aminocaproate-substituted corrole Complex 3 was submitted to NCI for cytotoxic screening at a single high dose (10−5M) in a panel of 60 human tumor cell lines (NCI60). Details of the cytotoxicity assessment in the NCI anticancer drug screen have been described previously, in Monks A, et al. (1991) Feasibility of a high-flux anticancer drug screen using a diverse panel of cultured human tumor cell lines. J Natl Cancer Inst 83(11):757-766, this reference being incorporated by reference for these teachings.
(§2) In view of the promising results observed for carboxylated corroles, Complex 3 was selected for expanded cell screening to uncover additional susceptible cancer cell lines. The cytotoxic activity of Complex 3 was tested at a dose of 10^−5 M against 60 human cancer cell lines representing nine distinct tumor types in the anticancer screening program of the National Cancer Institute (NCI). The in vitro parameters for cytotoxicity, growth percent, and lethality were obtained for Complex 3 and reported as a mean graph of the percent growth of treated cells (FIG. 7). Bars in the mean graph depict the deviation of individual tumor cell lines from the overall mean value for all cells tested. Bars that project to the right of the mean represent cell lines that are more sensitive to Complex 3, whereas cell lines less sensitive to the compound display bars that project to the left.
(§3) The numerical values associated with this assay represent growth relative to the no-drug control and the numbers of cells at time 0 (FIG. 7). This allows detection of both growth inhibition (values between 0 and 100) and lethality (values less than 0). For example, a value of 100 signifies no growth inhibition, 40 means 60% growth inhibition, 0 means no net growth over the course of the experiment, −40 means 40% lethality, and −100 indicates all cells are dead. […] Growth inhibitions reflect cytostatic activity of the compound as previously shown for Complex 2. In contrast, cell lethality is only evident in melanoma cells, specifically the LOX IMVI and SK-MEL-28 cell lines.

[3] = system: HCT-116; assay: NCI60 anticancer drug screen; assay type: cell-based, human; settings: HCT-116 (Colon cancer), 10 μM, 48 h
Text: as §1, §2, §3

[4] = system: HL-60 (TB); assay: NCI60 anticancer drug screen; assay type: cell-based, human; settings: HL-60 (TB) (Leukemia), 10 μM, 48 h
Text: as §1, §2, §3

[5] = system: HS 578T; assay: NCI60 anticancer drug screen; assay type: cell-based, human; settings: HS 578T (Breast Cancer), 10 μM, 48 h
Text: as §1, §2, §3

[6] = system: UACC-257; assay: NCI60 anticancer drug screen; assay type: cell-based, human; settings: UACC-257 (Melanoma), 10 μM, 48 h
Text: as §1, §2, §3

[7] = system: SK-OV-3; assay: NCI60 anticancer drug screen; assay type: cell-based, human; settings: SK-OV-3 (Ovarian Cancer), 10 μM, 48 h
Text: as §1, §2, §3

[8] = system: NCI-H226; assay: NCI60 anticancer drug screen; assay type: cell-based, human; settings: NCI-H226 (Non-small-cell lung cancer), 10 μM, 48 h
Text: as §1, §2, §3

[9] = system: HCT-15; assay: NCI60 anticancer drug screen; assay type: cell-based, human; settings: HCT-15 (Colon cancer), 10 μM, 48 h
Text: as §1, §2, §3

[10] = system: SK-MEL-2; assay: NCI60 anticancer drug screen; assay type: cell-based, human; settings: SK-MEL-2 (Melanoma), 10 μM, 48 h
Text: as §1, §2, §3

[11] = system: T-47D; assay: NCI60 anticancer drug screen; assay type: cell-based, human; settings: T-47D (Breast Cancer), 10 μM, 48 h
Text: as §1, §2, §3

[12] = system: PC-3; assay: NCI60 anticancer drug screen; assay type: cell-based, human; settings: PC-3 (Prostate Cancer), 10 μM, 48 h
Text: as §1, §2, §3

[13] = system: UACC-62; assay: NCI60 anticancer drug screen; assay type: cell-based, human; settings: UACC-62 (Melanoma), 10 μM, 48 h
Text: as §1, §2, §3

[14] = system: HCC-2998; assay: NCI60 anticancer drug screen; assay type: cell-based, human; settings: HCC-2998 (Colon cancer), 10 μM, 48 h
Text: as §1, §2, §3

[15] = system: MOLT-4; assay: NCI60 anticancer drug screen; assay type: cell-based, human; settings: MOLT-4 (Leukemia), 10 μM, 48 h
Text: as §1, §2, §3

[16] = system: M14; assay: NCI60 anticancer drug screen; assay type: cell-based, human; settings: M14 (Melanoma), 10 μM, 48 h
Text: as §1, §2, §3

[17] = system: HT29; assay: NCI60 anticancer drug screen; assay type: cell-based, human; settings: HT29 (Colon cancer), 10 μM, 48 h
Text: as §1, §2, §3

[18] = system: OVCAR-8; assay: NCI60 anticancer drug screen; assay type: cell-based, human; settings: OVCAR-8 (Ovarian Cancer), 10 μM, 48 h
Text: as §1, §2, §3

[19] = system: UO-31; assay: NCI60 anticancer drug screen; assay type: cell-based, human; settings: UO-31 (Renal Cancer), 10 μM, 48 h
Text: as §1, §2, §3

[20] = system: MDA-MB-468; assay: NCI60 anticancer drug screen; assay type: cell-based, human; settings: MDA-MB-468 (Breast Cancer), 10 μM, 48 h
Text: as §1, §2, §3

[21] = system: HOP-62; assay: NCI60 anticancer drug screen; assay type: cell-based, human; settings: HOP-62 (Non-small-cell lung cancer), 10 μM, 48 h
Text: as §1, §2, §3

[22] = system: DU-145; assay: NCI60 anticancer drug screen; assay type: cell-based, human; settings: DU-145 (Prostate Cancer), 10 μM, 48 h
Text: as §1, §2, §3

[23] = system: A498; assay: NCI60 anticancer drug screen; assay type: cell-based, human; settings: A498 (Renal Cancer), 10 μM, 48 h
Text: as §1, §2, §3

[24] = system: K-562; assay: NCI60 anticancer drug screen; assay type: cell-based, human; settings: K-562 (Leukemia), 10 μM, 48 h
Text: as §1, §2, §3

[25] = system: U251; assay: NCI60 anticancer drug screen; assay type: cell-based, human; settings: U251 (CNS Cancer), 10 μM, 48 h
Text: as §1, §2, §3

[26] = system: ACHN; assay: NCI60 anticancer drug screen; assay type: cell-based, human; settings: ACHN (Renal Cancer), 10 μM, 48 h
Text: as §1, §2, §3

[27] = system: NCI-H522; assay: NCI60 anticancer drug screen; assay type: cell-based, human; settings: NCI-H522 (Non-small-cell lung cancer), 10 μM, 48 h
Text: as §1, §2, §3

[28] = system: SW-620; assay: NCI60 anticancer drug screen; assay type: cell-based, human; settings: SW-620 (Colon cancer), 10 μM, 48 h
Text: as §1, §2, §3

[29] = system: SR; assay: NCI60 anticancer drug screen; assay type: cell-based, human; settings: SR (Leukemia), 10 μM, 48 h
Text: as §1, §2, §3

O=C(O)CCCCCNc1c(F)c(F)c(C2=C3C=CC4=[N+]3[Ga-]35[n]6c2ccc6C(c2c(F)c(F)c(F)c(F)c2F)=c2ccc([n]23)=C(c2c(F)c(F)c(F)c(F)c2F)c2ccc4[n]25)c(F)c1F (centres unmarked) [Complex 3]
solubility in water [1]: easily solubilized in water | Growth inhibition, % [2]: 53.1% | Growth inhibition, % [3]: 75.5% | Growth inhibition, % [4]: 86.1% | Growth inhibition, % [5]: 81.2% | Growth inhibition, % [6]: 37.2% | Growth inhibition, % [7]: 32.9% | Growth inhibition, % [8]: 61.1% | Growth inhibition, % [9]: 57.0% | Growth inhibition, % [10]: 64.1% | Growth inhibition, % [11]: 45.9% | Growth inhibition, % [12]: 71.9% | Growth inhibition, % [13]: 91.6% | Growth inhibition, % [14]: 60.1% | Growth inhibition, % [15]: 86.0% | Growth inhibition, % [16]: 84.1% | Growth inhibition, % [17]: 60.6% | Growth inhibition, % [18]: 67.3% | Growth inhibition, % [19]: 64.7% | Growth inhibition, % [20]: 86.3% | Growth inhibition, % [21]: 44.9% | Growth inhibition, % [22]: 64.7% | Growth inhibition, % [23]: 99.0% | Growth inhibition, % [24]: 72.9% | Growth inhibition, % [25]: 77.4% | Growth inhibition, % [26]: 73.2% | Growth inhibition, % [27]: 44.6% | Growth inhibition, % [28]: 75.9% | Growth inhibition, % [29]: 87.5%
